Literature values, collected in article PMC7395068, “The evolution of strategies to minimise the risk of human drug-induced liver injury (DILI) in drug discovery and development” (Archives of Toxicology, 2020).
Where two headings read alike, the source gives them in different places.

Assays:
[1] = ref Chen 2016; cited from earlier work
human hepatocytes = conditions: cited from earlier work
[2] = cited from earlier work
[3] = test system: THLE or HepG2 cells, isolated mitochondria, BSEP; conditions: cited from earlier work
[4] = test system: isolated mouse liver mitochondria; conditions: cited from earlier work
[5] = test system: primary human hepatocytes, NIH3T3 fibroblasts, BSEP, CYP3A4; conditions: cited from earlier work
[6] = In vitro Assay, ref Porceddu 2012
[7] = In vitro Assay, ref Schadt 2015

Oc1ncnc2[nH]ncc12 [allopurinol]
DILI +VE (5-8), DILI -VE (-4) [1]: +VE | DILI severity category [1]: vMost-DILI-Concern | Structural based (HCI) (human hepatocytes; In vitro Assay, ref Xu 2008): +VE | In vivo DILI ([2]; […]): +VE | In vivo DILI ([2]; ref Aleo 2019): +VE | In vivo DILI ([2]; ref Xu 2008): +VE | Partition Hybrid HRM Score ([3]; In vitro Assay, ref Aleo 2019): +VE | Ro2 Hybrid HRM Score ([3]; In vitro Assay, ref Aleo 2019): -VE

CC1(C)S[C@@H]2[C@H](NC(=O)[C@H](N)c3ccccc3)C(=O)N2[C@H]1C(=O)O [ampicillin]
in vitro data EC2<=1x Cmax [4, 6]: +VE

O=[As]O[As]=O (centres unmarked) [arsenic trioxide]
DILI +VE (5-8), DILI -VE (-4) [1]: -VE | DILI severity category [1]: Ambiguous DILI-concern | in vitro data EC2<=1x Cmax [4, 6]: -VE | in vitro data EC20<=2uM [4, 6]: +VE | In vivo DILI ([2]; ref Porceddu 2012): +VE

C=CC1=C(C(=O)O)N2C(=O)[C@@H](NC(=O)/C(=N\OCC(=O)O)c3csc(N)n3)[C@H]2SC1 [cefixime]
DILI +VE (5-8), DILI -VE (-4) [1]: -VE | DILI severity category [1]: Ambiguous DILI-concern | in vitro data EC2<=1x Cmax [4, 6]: +VE | in vitro data EC20<=2uM [4, 6]: -VE | In vivo DILI ([2]; ref Porceddu 2012): +VE

O=C(O)CCCc1ccc(N(CCCl)CCCl)cc1 [chlorambucil]
DILI +VE (5-8), DILI -VE (-4) [1]: +VE | DILI severity category [1]: vLess-DILI-Concern | in vitro data EC2<=1x Cmax [4, 6]: +VE | in vitro data EC20<=2uM [4, 6]: +VE | In vivo DILI ([2]; ref Porceddu 2012): +VE

COc1cc2c(c(OC)c1OC)-c1ccc(OC)c(=O)cc1[C@@H](NC(C)=O)CC2 [colchicine]
Structural based (HCI) (human hepatocytes): -VE | Cellular toxicity (3T3 cells) [5]: +VE | Combined Assay [5]: -VE | GSH adduct HML [5]: -VE | Hepatocyte cellular toxicity [5]: -VE | MitoTox 3T3 [5]: -VE | TDI CYP3A4 [5]: -VE | hBSEP inhibition [5]: -VE | Partition Hybrid HRM Score [3]: -VE

COc1cccc2c1C(=O)c1c(O)c3c(c(O)c1C2=O)C[C@@](O)(C(C)=O)C[C@@H]3O[C@H]1C[C@H](N)[C@H](O)[C@H](C)O1 [daunorubicin]
DILI +VE (5-8), DILI -VE (-4) [1]: -VE | DILI severity category [1]: vNo-DILI-Concern | in vitro data EC2<=1x Cmax [4, 6]: +VE | in vitro data EC20<=2uM [4, 6]: +VE | In vivo DILI ([2]; ref Porceddu 2012): +VE

CC(=O)N(O)CCCCCNC(=O)CCC(=O)N(O)CCCCCNC(=O)CCC(=O)N(O)CCCCCN [deferoxamine]
DILI +VE (5-8), DILI -VE (-4) [1]: +VE | DILI severity category [1]: vLess-DILI-Concern | Structural based (HCI) (human hepatocytes; In vitro Assay, ref Xu 2008): +VE | In vivo DILI ([2]; ref Aleo 2019): +VE | In vivo DILI ([2]; ref Xu 2008): +VE | Partition Hybrid HRM Score ([3]; In vitro Assay, ref Aleo 2019): +VE | Ro2 Hybrid HRM Score ([3]; In vitro Assay, ref Aleo 2019): +VE

CC1=NS(=O)(=O)c2cc(Cl)ccc2N1 [diazoxide]
DILI +VE (5-8), DILI -VE (-4) [1]: -VE | DILI severity category [1]: Ambiguous DILI-concern | in vitro data EC2<=1x Cmax [4, 6]: +VE | in vitro data EC20<=2uM [4, 6]: -VE | In vivo DILI ([2]; ref Porceddu 2012): -VE

C[C@H]1O[C@@H](O[C@H]2[C@@H](O)C[C@H](O[C@H]3[C@@H](O)C[C@H](O[C@H]4CC[C@@]5(C)[C@H](CC[C@@H]6[C@@H]5C[C@@H](O)[C@]5(C)[C@@H](C7=CC(=O)OC7)CC[C@]65O)C4)O[C@@H]3C)O[C@@H]2C)C[C@H](O)[C@@H]1O [digoxin]
Structural based (HCI) (human hepatocytes; In vitro Assay, ref Xu 2008): -VE | Cellular toxicity (3T3 cells) [5, 7]: -VE | Combined Assay [5, 7]: -VE | GSH adduct HML [5, 7]: -VE | Hepatocyte cellular toxicity [5, 7]: -VE | MitoTox 3T3 [5, 7]: -VE | TDI CYP3A4 [5, 7]: -VE | hBSEP inhibition [5, 7]: -VE | Ro2 Hybrid HRM Score ([3]; In vitro Assay, ref Aleo 2019): -VE | Partition Hybrid HRM Score [3]: -VE

Cc1c(N(C)CS(=O)(=O)[O-])c(=O)n(-c2ccccc2)n1C.[Na+] [dipyrone]
in vitro data EC20<=2uM [4]: +VE

C=C1CC[C@H](O)C/C1=C/C=C1\CCC[C@]2(C)[C@@H]([C@H](C)/C=C/[C@H](C)C(C)C)CC[C@@H]12 [ergocalciferol]
DILI +VE (5-8), DILI -VE (-4) [1]: -VE | DILI severity category [1]: vNo-DILI-Concern | Structural based (HCI) (human hepatocytes; In vitro Assay, ref Xu 2008): -VE | In vivo DILI ([2]; ref Aleo 2019): -VE | In vivo DILI ([2]; ref Xu 2008): -VE | Partition Hybrid HRM Score ([3]; In vitro Assay, ref Aleo 2019): -VE | Ro2 Hybrid HRM Score ([3]; In vitro Assay, ref Aleo 2019): -VE

O=c1c(-c2ccc(O)cc2)coc2cc(O)cc(O)c12 [genistein]
in vitro data EC20<=2uM [4]: +VE | In vivo DILI ([2]; in vivo): -VE

[Cl][Mn][Cl] [manganese chloride]
in vitro data EC2<=1x Cmax [4, 6]: -VE | in vitro data EC20<=2uM [4, 6]: -VE | In vivo DILI ([2]; ref Porceddu 2012): -VE

Cc1cn(-c2cc(NC(=O)c3ccc(C)c(Nc4nccc(-c5cccnc5)n4)c3)cc(C(F)(F)F)c2)cn1 [nilotinib]
in vitro data EC2<=1x Cmax [4, 6]: +VE

NC(=O)c1ncn([C@@H]2O[C@H](CO)[C@@H](O)[C@H]2O)n1 [ribavirin]
DILI +VE (5-8), DILI -VE (-4) [1]: -VE | DILI severity category [1]: Ambiguous DILI-concern | Structural based (HCI) (human hepatocytes; In vitro Assay, ref Xu 2008): -VE | In vivo DILI ([2]; ref Xu 2008): -VE | Partition Hybrid HRM Score ([3]; In vitro Assay, ref Aleo 2019): -VE | Ro2 Hybrid HRM Score ([3]; In vitro Assay, ref Aleo 2019): -VE

Cc1cc2nc3c(=O)[nH]c(=O)nc-3n(C[C@H](O)[C@H](O)[C@H](O)CO)c2cc1C [riboflavin]
in vitro data EC2<=1x Cmax [4, 6]: -VE

CC[C@H]1OC(=O)[C@H](C)[C@@H](O[C@H]2C[C@@](C)(OC)[C@@H](O)[C@H](C)O2)[C@H](C)[C@@H](O[C@@H]2O[C@H](C)C[C@H](N(C)C)[C@H]2O)[C@](C)(O)C[C@@H](C)/C(=N\OCOCCOC)[C@H](C)[C@@H](O)[C@]1(C)O [roxithromycin]
in vitro data EC2<=1x Cmax [4, 6]: +VE | in vitro data EC20<=2uM [4, 6]: -VE | In vivo DILI ([2]; ref Porceddu 2012): +VE

NCCS(=O)(=O)O [taurine]
in vitro data EC20<=2uM ([4]; isolated mouse liver mitochondria, EC20<=2uM, ref Porceddu 2012): -VE

CC[C@H]1OC(=O)[C@H](C)C(=O)[C@H](C)[C@@H](O[C@@H]2O[C@H](C)C[C@H](N(C)C)[C@H]2O)[C@](C)(OC)C[C@@H](C)C(=O)[C@H](C)[C@H]2N(CCCCn3cnc(-c4cccnc4)c3)C(=O)O[C@]12C [telithromycin]
DILI +VE (5-8), DILI -VE (-4) [1]: +VE | DILI severity category [1]: vMost-DILI-Concern | Structural based (HCI) (human hepatocytes; In vitro Assay, ref Xu 2008): +VE | In vivo DILI ([2]; ref Aleo 2019): +VE | In vivo DILI ([2]; ref Xu 2008): +VE | Partition Hybrid HRM Score ([3]; In vitro Assay, ref Aleo 2019): +VE | Ro2 Hybrid HRM Score ([3]; In vitro Assay, ref Aleo 2019): +VE

CCCc1nc2c(C)cc(-c3nc4ccccc4n3C)cc2n1Cc1ccc(-c2ccccc2C(=O)O)cc1 [telmisartan]
DILI +VE (5-8), DILI -VE (-4) [1]: +VE | DILI severity category [1]: vLess-DILI-Concern | Structural based (HCI) (human hepatocytes; In vitro Assay, ref Xu 2008): -VE | In vivo DILI ([2]; ref Aleo 2019): +VE | In vivo DILI ([2]; ref Schadt 2015): -VE | In vivo DILI ([2]; ref Xu 2008): -VE | Cellular toxicity (3T3 cells) [5]: -VE | Combined Assay [5]: +VE | GSH adduct HML [5]: -VE | Hepatocyte cellular toxicity [5]: +VE | MitoTox 3T3 [5]: -VE | TDI CYP3A4 [5]: -VE | hBSEP inhibition [5]: +VE | Partition Hybrid HRM Score ([3]; In vitro Assay, ref Aleo 2019): +VE | Ro2 Hybrid HRM Score ([3]; In vitro Assay, ref Aleo 2019): +VE
